Laboratory results as given in ChEMBL document CHEMBL1201862, “PubChem BioAssay data set” (2004).
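Grown in 96-well plates, cells were treated for 48 hours with each compound at five concentrations. Insufficient inhibition: endpoint recorded as highest concentration tested. Here, GI50 denotes the concentration required for 50% inhibition of growth.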 Active and inactive are the calls of the source. Cut-off read from the data, not from the text of the source: active = GI50 up to about 1.1 µM and inactive = higher.

Columns and labels:
Assay in all cases: NCI tumour cell line growth inhibition, 48 h
786-0 = test system: 786-0
A498 = test system: A498
A549 = test system: A549
ACHN = test system: ACHN
CAKI-1 = test system: CAKI-1
CCRF-CEM = test system: CCRF-CEM
COLO 205 = test system: COLO 205
DLD-1 = test system: DLD-1
DMS-114 = test system: DMS-114
DMS-273 = test system: DMS-273
EKVX = test system: EKVX
HCC 2998 = test system: HCC 2998
HCT-116 = test system: HCT-116
HCT-15 = test system: HCT-15
HOP-18 = test system: HOP-18
HOP-62 = test system: HOP-62
HOP-92 = test system: HOP-92
HT-29 = test system: HT-29
IGROV-1 = test system: IGROV-1
K562 = test system: K562
KM-20L2 = test system: KM-20L2
KM12 = test system: KM12
LOX IMVI = test system: LOX IMVI
LXFL 529 = test system: LXFL 529
M14 = test system: M14
M19-MEL = test system: M19-MEL
MOLT-4 = test system: MOLT-4
Malme-3M = test system: Malme-3M
NCI-H226 = test system: NCI-H226
NCI-H23 = test system: NCI-H23
NCI-H460 = test system: NCI-H460
NCI-H522 = test system: NCI-H522
OVCAR-3 = test system: OVCAR-3
OVCAR-4 = test system: OVCAR-4
OVCAR-5 = test system: OVCAR-5
OVCAR-8 = test system: OVCAR-8
RPMI-8226 = test system: RPMI-8226
RXF 393 = test system: RXF 393
RXF 631 = test system: RXF 631
SF-268 = test system: SF-268
SF-295 = test system: SF-295
SF-539 = test system: SF-539
SK-MEL-28 = test system: SK-MEL-28
SK-OV-3 = test system: SK-OV-3
SN12C = test system: SN12C
SNB-19 = test system: SNB-19
SNB-75 = test system: SNB-75
SNB-78 = test system: SNB-78
SW-620 = test system: SW-620
U-251 = test system: U-251
UACC-257 = test system: UACC-257
UACC-62 = test system: UACC-62
UO-31 = test system: UO-31
XF498 = test system: XF498

Measured: GI50

CN(C(=O)c1ccc([N+](=O)[O-])cc1)c1ccccc1
inactive: 786-0 > 100 µM | A498 > 100 µM | A549 > 100 µM | ACHN > 100 µM | CAKI-1 > 100 µM | CCRF-CEM > 100 µM | COLO 205 > 100 µM | DLD-1 > 100 µM | DMS-114 > 10 µM | DMS-273 > 100 µM | EKVX > 100 µM | HCC 2998 > 100 µM | HCT-116 > 100 µM | HOP-18 > 100 µM | HOP-62 > 100 µM | HOP-92 > 100 µM | HT-29 > 100 µM | IGROV-1 > 100 µM | K562 > 10 µM | KM-20L2 > 100 µM | KM12 > 100 µM | LOX IMVI > 100 µM | LXFL 529 > 100 µM | M14 > 100 µM | M19-MEL > 100 µM | MOLT-4 > 100 µM | Malme-3M > 100 µM | NCI-H226 > 100 µM | NCI-H23 > 100 µM | NCI-H460 > 100 µM | NCI-H522 > 100 µM | OVCAR-3 > 100 µM | OVCAR-4 > 100 µM | OVCAR-5 > 100 µM | OVCAR-8 > 100 µM | RPMI-8226 > 100 µM | RXF 393 21.6 µM | RXF 631 > 100 µM | SF-268 > 100 µM | SF-295 > 100 µM | SF-539 > 100 µM | SK-MEL-28 > 100 µM | SK-OV-3 > 100 µM | SN12C > 100 µM | SNB-19 > 100 µM | SNB-75 87.9 µM | SNB-78 > 100 µM | SW-620 > 100 µM | U-251 > 100 µM | UACC-257 > 100 µM | UACC-62 > 10 µM | UO-31 > 100 µM | XF498 > 100 µM
> 100 µM: HCT-15
